According to patent US12115163B2, “Combination therapy comprising a MAT2A inhibitor and a type II PRMT inhibitor” (IDEAYA BIOSCIENCES, INC., priority 2021, dated 2024):
“Also recorded” adds a separate entry of the source.

Columns and labels:
Format in all cases: in vivo, mouse
[1] = test system: NCI-H838 MTAP-deleted xenografts; assay: Efficacy of Compound A and Compound B in NCI-H838 NSCLC xenograft (Example 6); conditions: for TGI (%): Study Day 25; for Final TV (mean): initial TV 140
Method: (§1) The effect of Compound A and Compound B (HCl salt was used) as single-agent anti-tumor agents and in combination was assessed in the NCI-H838 human NSCLC tumor cell line, an endogenously MTAP-deleted cell line. Cells were expanded in RPMI with 10% fetal bovine serum. These cells were free of mycoplasma and authenticated by STR profiling. Ten million cells in log growth phase were resuspended in RPMI-1640 containing 50% Matrigel and implanted subcutaneously into the flank of each recipient female BALB/c nude mouse. The mice were be kept in laminar flow rooms at constant temperature and humidity with 3-5 mice in each cage. Animals were housed in polycarbonate cages maintained at a temperature of 23±3° C. and a relative humidity of 40% to 70%. The bedding material was soft wood, which was changed once per week. Water and diet were provided ad libitum.
(§2) Tumor Volume (TV) was calculated using the following formula: TV (mm^3)=(width×width×length)/2. No dose holidays were provided for during the study. Tumor growth inhibition (TGI) was calculated by [(TV controlfinal−TV treatedfinal)/(TV controlfinal−TV controlinitial)×100]. A TGI greater than 100% indicates tumor regressions. TV was analyzed for statistical significance utilizing GraphPad Prism version 9.1.0. Repeated Measures 2-Way ANOVA with Tukey's Multiple Comparisons was utilized, and P-values were presented from the Study Day 25 tumor measurement and were considered statistically significant if less than 0.05.
Mean tumor volume at dosing start was approximately 140 mm^3, with ten mice randomized to each treatment group, with the study consisting of eight treatment groups. Mice were dosed orally, twice per day (BID) with Vehicle, once per day (QD) with Compound A at 3 mg/kg, or BID with Compound B at 1, 10, or 30 mg/kg, or Compound A combined with Compound B at each dose level. The Vehicle was 0.5% 400 cps methylcellulose with 0.5% Tween-80 in sterile water.

[2] = test system: HCT-116 MTAP-deleted tumors; assay: Efficacy of Compound A and Compound B in HCT-116 MTAP-deleted xenografts (Example 5); conditions: for TGI (%) / Final TV (mean): Day 21; for Final TV (mean): initial TV 224
Method: (§3) The effect of Compound A and Compound B (HCl salt was used) as single-agent anti-tumor agents and in combination was assessed in the HCT-116 human colon tumor cell line, MTAP isogenic pair (MTAP proficient (WT) or MTAP-deleted). Cells were expanded in DMEM/F12 GlutaMAX (Fisher Scientific, Catalog Number 10-565-018) with 10% fetal bovine serum. These cells were free of mycoplasma and authenticated as HCT-116 by STR profiling. Two and a half million cells in log growth phase were resuspended in Hanks Balanced Salt Solution containing 50% Matrigel and implanted subcutaneously into the flank of each recipient female nu/nu mouse. Mice were housed in microisolator cages with corn cob bedding with additional enrichment consisting of sterile nesting material (Innovive) and Bio-huts (Bio-Serv). Water (Innovive) and diet (Teklad Global 19% Protein Extruded Diet 2919, Irradiated) were provided ad libitum. The environment was maintained on a 12-hour light cycle at approximately 68-72° F. and 40-60% relative humidity.
as §2, with “study and all mice were euthanized following the final dose on Day 21 (MTAP-deleted) or Day 15 (MTAP WT).” for “study.”, “final” for “Study Day 25”
(§4) Mean tumor volume at dosing start was approximately 224 mm^3, with seven mice randomized to each treatment group. In the HCT-116 MTAP-deleted tumor model, mice were dosed orally, twice per day (BID) with Vehicle, once per day (QD) with Compound A at 1 or 3 mg/kg, or BID with Compound B at 3, 10, or 30 mg/kg, or Compound A combined with Compound B at each dose level. In the HCT-116 WT tumor model, mice were dosed orally, with BID Vehicle, QD with Compound A at 3 mg/kg, or BID with Compound B at 10 or 30 mg/kg, or Compound A combined with Compound B. The Vehicle was 0.5% 400 cps methylcellulose with 0.5% Tween-80 in sterile water.

[3] = test system: HCT-116 MTAP WT tumors; assay: Efficacy of Compound A and Compound B in HCT-116 MTAP WT xenografts (Example 5); conditions: for TGI (%) / Final TV (mean): Day 15; for Final TV (mean): initial TV 228
Method: as §3
as §2, with “study and all mice were euthanized following the final dose on Day 21 (MTAP-deleted) or Day 15 (MTAP WT).” for “study.”, “final” for “Study Day 25”
as §4

[4] = test system: LU99 MTAP-deleted xenografts; assay: Efficacy of Compound A and Compound B in LU99 NSCLC xenograft (Example 7); conditions: for TGI (%) / Final TV (mean): Study Day 21
Method: as §1, with “JCRB LU99” for “NCI-H838”
Tumor Volume (TV) was calculated using the following formula: TV (mm^3)=(width×width×length)/2. No dose holidays were provided for during the study. Tumor growth inhibition (TGI) was calculated by [(TV controlfinal−TV treatedfinal)/(TV controlfinal−TV controlinitial)×100]. A TGI greater than 100% indicates tumor regressions. TV was analyzed for statistical significance utilizing GraphPad Prism version 9.1.0. Repeated Measures 2-Way ANOVA with Tukey's Multiple Comparisons was utilized, and P-values were presented from the final tumor measurement on Study Day 21 and were considered statistically significant if less than 0.05.
Mean tumor volume at dosing start was approximately 141 mm^3, with ten mice randomized to each treatment group, with the study consisting of eight treatment groups. Mice were dosed orally, twice per day (BID) with Vehicle, once per day (QD) with Compound A at 3 mg/kg, or BID with Compound B at 1, 10, or 30 mg/kg, or Compound A combined with Compound B at each dose level. The Vehicle was 0.5% 400 cps methylcellulose with 0.5% Tween-80 in sterile water.

[5] = HCT-116 MTAP WT model, over the dose levels tested

Cn1ncc(-c2ccc3c(=O)[nH]nc(CN)c3c2)c1-c1c(F)cc2ccccc2c1C#N (atropisomer, axis not shown) [Compound B]
TGI (%) ([1]; Compound B 1 mg/kg BID orally): 53%
Final TV (mean) ([1]; Compound B 1 mg/kg BID orally): 899 mm^3
TGI (%) ([1]; Compound B 10 mg/kg BID orally): 56%
Final TV (mean) ([1]; Compound B 10 mg/kg BID orally): 839 mm^3
TGI (%) ([1]; Compound B 30 mg/kg BID orally): 67%
Final TV (mean) ([1]; Compound B 30 mg/kg BID orally): 666 mm^3
TGI (%) ([2]; Compound B 3 mg/kg BID orally): 29%
Final TV (mean) ([2]; Compound B 3 mg/kg BID orally): 1015 mm^3
TGI (%) ([2]; Compound B 10 mg/kg BID orally): 49%
Final TV (mean) ([2]; Compound B 10 mg/kg BID orally): 794 mm^3
TGI (%) ([2]; Compound B 30 mg/kg BID orally): 83%
Final TV (mean) ([2]; Compound B 30 mg/kg BID orally): 420 mm^3
anti-tumor activity (in words) ([3]; Compound B 10 mg/kg BID): significantly enhanced tumor growth
TGI (%) ([3]; Compound B 10 mg/kg BID orally): −52%
Final TV (mean) ([3]; Compound B 10 mg/kg BID orally): 1596 mm^3
TGI (%) ([3]; Compound B 30 mg/kg BID orally): −27%
Final TV (mean) ([3]; Compound B 30 mg/kg BID orally): 1372 mm^3
anti-tumor activity (in words) [3, 5]: no single agent activity
TGI (%) ([4]; Compound B 1 mg/kg BID orally): 23%
Final TV (mean) ([4]; Compound B 1 mg/kg BID orally, initial TV 142): 1765 mm^3
TGI (%) ([4]; Compound B 10 mg/kg BID orally): 74%
Final TV (mean) ([4]; Compound B 10 mg/kg BID orally, initial TV 142): 683 mm^3
TGI (%) ([4]; Compound B 30 mg/kg BID orally): 90%
Final TV (mean) ([4]; Compound B 30 mg/kg BID orally, initial TV 141): 353 mm^3

Nc1nc(=O)n(-c2ccccc2Cl)c2nc(C(F)(F)F)ccc12 [Compound A]
TGI (%) ([1]; Compound A 3 mg/kg QD orally): 79%
Final TV (mean) ([1]; Compound A 3 mg/kg QD orally): 478 mm^3
anti-tumor activity (in words) ([1]; NCI-H838 model, over the dose levels tested): statistically significant anti-tumor activity
TGI (%) ([2]; Compound A 1 mg/kg QD orally): 64%
Final TV (mean) ([2]; Compound A 1 mg/kg QD orally): 632 mm^3
TGI (%) ([2]; Compound A 3 mg/kg QD orally): 80%
Final TV (mean) ([2]; Compound A 3 mg/kg QD orally): 450 mm^3
anti-tumor activity (in words) ([2]; HCT-116 MTAP-deleted model, over the dose levels tested): statistically significant anti-tumor activity
TGI (%) ([3]; Compound A 3 mg/kg QD orally): −9%
Final TV (mean) ([3]; Compound A 3 mg/kg QD orally): 1211 mm^3
anti-tumor activity (in words) [3, 5]: no tumor growth inhibition; also recorded: no single agent activity
TGI (%) ([4]; Compound A 3 mg/kg QD orally): 43%
Final TV (mean) ([4]; Compound A 3 mg/kg QD orally, initial TV 142): 1341 mm^3
anti-tumor activity (in words) ([4]; LU99 model, over the dose levels tested): statistically significant anti-tumor activity
